Legend:
Assay type in all cases: in vivo
Pharbitis purpurea [1] = assay: Pre-emergence herbicidal action, PHBPU; conditions: dosage 320 g/ha, scored visually after 3 weeks vs untreated controls (100% = plants have died)
Method in brief: (§1)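 Pre-emergence, sandy loam soil; WP/EC formulation applied to covering soil surface, 600–800 l/ha water + 0.2% wetter; greenhouse, 3 wk; visual % damage vs untreated (0–100%).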

Pharbitis purpurea [2] = assay: Post-emergence herbicidal action, PHBPU
Method in brief: (§2)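 Treatment: post-emergence spray, one-leaf stage. Medium: sandy loam, greenhouse. Carrier: 600–800 l/ha water, 0.2% wetting agent. Read-out: visual % activity at ~3 weeks, untreated plants as reference.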

Amaranthus retroflexus = assay: Post-emergence herbicidal action, AMARE; design: key: % herbicidal action vs untreated; 100 = plants died, 0 = like control; conditions: for Herbicidal action against AMARE: comparative experiment, 5 g of a.i./ha
Method in brief: as §2

Setaria viridis [3] = assay: Pre-emergence herbicidal action, SETVI; design: key to Herbicidal action against SETVI: % activity: 100 = plants have died, 0 = like control plants; conditions: for herbicidal activity SETVI: dosage 320 g/ha, scored visually after 3 weeks vs untreated controls (100% = plants have died); for Herbicidal action against SETVI: comparative experiment
Method in brief: as §1

Echinochloa crus-galli = assay: Pre-emergence herbicidal action, ECHCG; design: key to Herbicidal action against ECHCG: % activity: 100 = plants have died, 0 = like control plants; conditions: for herbicidal activity ECHCG: dosage 320 g/ha, scored visually after 3 weeks vs untreated controls (100% = plants have died); for Herbicidal action against ECHCG: comparative experiment
Method in brief: as §1

Setaria viridis [4] = assay: Post-emergence herbicidal action, SETVI; design: key: % herbicidal action vs untreated; 100 = plants died, 0 = like control; conditions: for Herbicidal action against SETVI: comparative experiment
Method in brief: as §2

| Structure (SMILES) | herbicidal activity PHBPU (Pharbitis purpurea [1]) [%] | herbicidal action PHBPU (Pharbitis purpurea [2]; post-emergence, dosage 80 g/ha) [%] | herbicidal action AMARE (Amaranthus retroflexus; post-emergence, dosage 80 g/ha) [%] | herbicidal activity SETVI (Setaria viridis [3]) [%] | herbicidal activity ECHCG (Echinochloa crus-galli) [%] | herbicidal action SETVI (Setaria viridis [4]; post-emergence, dosage 80 g/ha) [%] | herbicidal action PHBPU (Pharbitis purpurea [2]; Dosage 80 g/ha) | herbicidal action AMARE (Amaranthus retroflexus; Dosage 80 g/ha) | herbicidal action SETVI (Setaria viridis [4]; Dosage 80 g/ha) | Herbicidal action against AMARE (Amaranthus retroflexus; post-emergence) | Herbicidal action against ECHCG (Echinochloa crus-galli; 20 g of a.i./ha) | Herbicidal action against SETVI (Setaria viridis [4]; post-emergence, 5 g of a.i./ha) | Herbicidal action against SETVI (Setaria viridis [3]; 20 g of a.i./ha) | Herbicidal action against SETVI (Setaria viridis [3]; 80 g of a.i./ha) | Herbicidal action against ECHCG (Echinochloa crus-galli; 80 g of a.i./ha) | Herbicidal action against SETVI (Setaria viridis [4]; post-emergence, 20 g of a.i./ha) |
| --- | --- | --- | --- | --- | --- | --- | --- | --- | --- | --- | --- | --- | --- | --- | --- | --- |
| Cn1nnnc1NC(=O)c1ccc(C(F)(F)F)c(CS(=O)(=O)C2CC2)c1Cl [Example 1-304] | 100 | 100 | 100 | 100 | 100 | 90 | – | – | – | – | – | – | – | – | – | – |
| COCCSCc1c(C(F)(F)F)ccc(C(=O)Nc2nnnn2C)c1Cl [Example 1-305] | 90 | 100 | 100 | 100 | 100 | 100 | – | – | – | – | – | – | – | – | – | – |
| Cn1nnnc1NC(=O)c1ccc(C(F)(F)F)c(CSCC(F)(F)F)c1Cl [Example 1-311] | 100 | – | – | 100 | 100 | – | 100 | 100 | 100 | – | – | – | – | – | – | – |
| Cn1nnnc1NC(=O)c1ccc(C(F)(F)F)c(CSCC2CC2)c1Cl [Example 1-314] | 90 | 100 | 100 | 100 | 100 | 100 | – | – | – | – | – | – | – | – | – | – |
| Cn1nnnc1NC(=O)c1ccc(C(F)(F)F)c(CS(=O)(=O)CC2CC2)c1Cl [Example 1-316] | 90 | – | – | 100 | 100 | – | 90 | 100 | 90 | – | – | – | – | – | – | – |
| CSCc1c(C(F)F)ccc(C(=O)Nc2nnnn2C)c1Cl [Example 1-320] | 80 | – | – | 100 | 100 | – | 90 | 100 | 100 | 100 | 100 | 100 | – | – | – | – |
| Cn1nnnc1NC(=O)c1ccc(C(F)F)c(CS(C)(=O)=O)c1Cl [Example 1-322] | 100 | 80 | 80 | 100 | 100 | 100 | – | – | – | – | – | – | – | – | – | – |
| CCSCc1c(C(F)F)ccc(C(=O)Nc2nnnn2C)c1Cl [Example 1-323] | 100 | 100 | 90 | 100 | 100 | 100 | – | – | – | – | – | 100 | – | – | – | – |
| CSCc1c(I)ccc(C(=O)Nc2nnnn2C)c1Cl [Example 1-362] | 80 | 100 | 100 | 100 | 100 | 90 | – | – | – | 100 | 80 | – | 90 | – | – | – |
| CCSCc1c(C(F)(F)F)ccc(C(=O)Nc2nnnn2C)c1Br [Example 1-383] | 80 | 90 | 90 | 100 | 100 | 90 | – | – | – | – | – | – | – | 100 | 100 | 90 |
| Cn1nnnc1NC(=O)c1ccc(C(F)(F)F)c(CS(C)(=O)=O)c1C(F)(F)C(F)(F)F [Example 1-552] | 90 | – | – | 100 | 100 | – | 100 | 90 | 80 | – | – | – | – | – | – | – |
| CCn1nnnc1NC(=O)c1ccc(C(F)(F)F)c(C[S+](C)[O-])c1SC (stereo not shown) [Example 2-162] | 90 | – | – | 100 | 100 | – | 90 | 90 | 90 | – | – | – | – | – | – | – |
| CCn1nnnc1NC(=O)c1ccc(C(F)F)c(C[S+](C)[O-])c1SC (stereo not shown) [Example 2-171] | 90 | – | – | 100 | 100 | – | 100 | 100 | 90 | – | – | – | – | – | – | – |
| CCn1nnnc1NC(=O)c1ccc(C(F)(F)F)c(CSC)c1Cl [Example 2-296] | 90 | 90 | 100 | 100 | 100 | 90 | – | – | – | – | – | – | – | – | – | – |
| CCn1nnnc1NC(=O)c1ccc(C(F)(F)F)c(C[S+](C)[O-])c1Cl (stereo not shown) [Example 2-297] | 90 | 100 | 100 | 100 | 100 | 100 | – | – | – | – | – | – | – | – | – | – |
| CCn1nnnc1NC(=O)c1ccc(C(F)(F)F)c(CS(C)(=O)=O)c1Cl [Example 2-298] | 80 | – | – | 100 | 100 | – | 90 | 90 | 90 | – | – | – | – | – | – | – |
| CCSCc1c(C(F)(F)F)ccc(C(=O)Nc2nnnn2CC)c1Cl [Example 2-299] | 90 | 90 | 90 | 100 | 100 | 100 | – | – | – | – | – | – | – | – | – | – |
| CCn1nnnc1NC(=O)c1ccc(C(F)(F)F)c(C[S+]([O-])CC)c1Cl (stereo not shown) [Example 2-300] | 100 | 90 | 100 | 100 | 100 | 100 | – | – | – | – | – | – | – | – | – | – |
| CCn1nnnc1NC(=O)c1ccc(C(F)(F)F)c(CSCCOC)c1Cl [Example 2-305] | 100 | 100 | 100 | 100 | 100 | 100 | – | – | – | – | – | – | – | – | – | – |
| CCn1nnnc1NC(=O)c1ccc(C(F)(F)F)c(C[S+]([O-])CC2CC2)c1Cl (stereo not shown) [Example 2-315] | 90 | – | – | 100 | 100 | – | 100 | 100 | 100 | – | – | – | – | – | – | – |
| CCn1nnnc1NC(=O)c1ccc(C(F)F)c(CSC)c1Cl [Example 2-320] | 80 | – | – | 100 | 100 | – | 90 | 100 | 100 | – | – | – | – | – | – | – |
| CCn1nnnc1NC(=O)c1ccc(C(F)F)c(CS(C)(=O)=O)c1Cl [Example 2-322] | 100 | 90 | 80 | 100 | 100 | 100 | – | – | – | – | – | – | – | – | – | – |
| CCSCc1c(C(F)F)ccc(C(=O)Nc2nnnn2CC)c1Cl [Example 2-323] | 90 | 90 | 80 | 100 | 100 | 100 | – | – | – | – | – | – | – | – | – | – |

From patent US12492173B2, “Herbicidal substituted N-tetrazolyl aryl carboxamides” (Bayer Aktiengesellschaft, priority 2019, dated 2025)
